≈ marks a conversion by molar mass, not a printed value.
Experiments:
Candida albicans [1] = assay: Candidosis in mice, oral treatment; type: in vivo, Mice of the type SPF-C1; conditions: orally 50, 75, 100 and 150 mg/kg, one hour before and 7 hours after infection; untreated control ~5% survival
Procedure: Description of the experiment:
Mice of the type SPF-C1 were infected intravenously with 1-2 × 10^6 logarithmically-growing Candida cells suspended in physiological sodium chloride solution.
One hour before, and 7 hours after, the infection the animals are treated orally with 50, 75, 100 and 150 mg/kg of body weight of the preparations.
Untreated animals died of the infection 3 to 6 days after infection. The survival rate on the 6th day after infection was ~ 5% in untreated control animals.

Candida Albicans [2] = assay: Series dilution test in vitro, minimum inhibitory concentration, Candida albicans; type: cell-based; conditions: 28° C, 24 to 96 hours
Procedure: (§1) Determination of the antimycotic spectrum of activity in vitro by the series dilution test.
(§2) The nutrient media used were Sabouraud's milieu d'epreuve for dermatophyties and molds and meat broth-glucose bouillon for blastomyces and biphase fungi.
(§3) The incubation temperature was 28° C and the incubation time was 24 to 96 hours.

[3] = test system: Trichophyton mentagrophytes; assay: Series dilution test in vitro, minimum inhibitory concentration, Trichophyton mentagrophytes; type: cell-based; conditions: 28° C, 24 to 96 hours
Procedure: as §1, §2, §3

Aspergillus niger = assay: Series dilution test in vitro, minimum inhibitory concentration, Aspergillus niger; type: cell-based; conditions: 28° C, 24 to 96 hours
Procedure: as §1, §2, §3

For Cc1cc(Cl)ccc1C(c1ccccc1)(c1ccccc1)n1ccnc1 [Example 4, 1-(2-Methyl-4-chlorophenyl-diphenyl)-methyl-imidazole], which “Action on candidosis in Mice (survival on the 6th day after infection)” value (“Action on candidosis in Mice” for short) (Candida albicans [1]) is on record?
Its value is “+++++ (very good action = >90% survival on the 6th day after infection)”.

What about the MIC (Candida Albicans [2]; n.s. = no added serum) of the same molecule?
The MIC was 1 µg/mL (≈ 2.79 µM).

What about the MIC (Candida Albicans [2]; w.s. = with 30% serum added) of the same molecule?
Its MIC is 40 µg/mL (≈ 111 µM).

And the MIC ([3]; n.s. = no added serum)?
Its MIC is < 1 µg/mL.

What about the MIC ([3]; w.s. = with 30% serum added) of the same molecule?
Its MIC is 10 µg/mL (≈ 27.9 µM).

What does the source list for Cc1ccc(C)c(C(c2ccccc2)(c2ccccc2)n2ccnc2)c1 [Example 3, 1-(2,5-Dimethylphenyl-diphenyl)-methyl-imidazole]?
Action on candidosis in Mice (survival on the 6th day after infection) (Candida albicans [1]): ++++ (good action = >80% survival on the 6th day after infection); MIC (Candida Albicans [2]; n.s. = no added serum): 1 µg/mL (≈ 2.95 µM); MIC ([3]; n.s. = no added serum): < 1 µg/mL; MIC ([3]; w.s. = with 30% serum added): 40 µg/mL (≈ 118 µM)

Cc1cccc(C(c2ccccc2)(c2ccccc2)n2ccnc2)c1C [Example 1, 1-(2,3-dimethylphenyl-diphenyl)-methyl-imidazole] was tested. Which “Action on candidosis in Mice” value (Candida albicans [1]) did it give?
The value was “+++++ (very good action = >90% survival on the 6th day after infection)”.

And the MIC (Candida Albicans [2]; n.s. = no added serum)?
The MIC was 1 µg/mL (≈ 2.95 µM).

And the MIC ([3]; n.s. = no added serum)?
Its MIC is < 1 µg/mL.

And the MIC ([3]; w.s. = with 30% serum added)?
Its MIC is 4 µg/mL (≈ 11.8 µM).

And the MIC (Aspergillus niger; n.s. = no added serum)?
The MIC was 4 µg/mL (≈ 11.8 µM).

And the MIC (Aspergillus niger; w.s. = with 30% serum added)?
Its MIC is 40 µg/mL (≈ 118 µM).

How did the “Action on candidosis in Mice” value (Candida albicans [1]) turn out when Cc1ccccc1C(c1ccccc1)(c1ccccc1C)n1ccnc1 [Example 8, 1-(2-Methylphenyl-2'-methylphenyl-phenyl)-methyl-imidazole] was run?
Its value is “+++++ (very good action = >90% survival on the 6th day after infection)”.

And the MIC (Candida Albicans [2]; n.s. = no added serum)?
Its MIC is 1 µg/mL (≈ 2.95 µM).

What about the MIC ([3]; n.s. = no added serum) of the same molecule?
Its MIC is < 1 µg/mL.

And the MIC ([3]; w.s. = with 30% serum added)?
The MIC was 10 µg/mL (≈ 29.5 µM).

How did the “Action on candidosis in Mice” value (Candida albicans [1]) turn out when Cc1ccc(C(c2ccccc2)(c2ccccc2)n2ccnc2)c(C)c1 [Example 2, 1-(2,4-Dimethylphenyl-diphenyl)-methyl-imidazole] was run?
The value was “+++++ (very good action = >90% survival on the 6th day after infection)”.

With Clc1cccc(Cl)c1C(c1ccccc1)(c1ccccc1)n1ccnc1 [Example 7, 1-(2,6-Dichlorophenyl-diphenyl)-methyl-imidazole] as the molecule, how does the “Action on candidosis in Mice” value (Candida albicans [1]) read?
Its value is “+++++ (very good action = >90% survival on the 6th day after infection)”.

And the MIC (Candida Albicans [2]; n.s. = no added serum)?
Its MIC is 1 µg/mL (≈ 2.64 µM).

And the MIC ([3]; n.s. = no added serum)?
The MIC was < 1 µg/mL.

What about the MIC ([3]; w.s. = with 30% serum added) of the same molecule?
Its MIC is 4 µg/mL (≈ 10.5 µM).

With Clc1cccc(C(c2ccccc2)(c2ccccc2)n2ccnc2)c1Cl [Example 6, 1-(2,3-Dichlorophenyl-diphenyl)-methyl-imidazole] as the molecule, how does the “Action on candidosis in Mice” value (Candida albicans [1]) read?
Its value is “+++++ (very good action = >90% survival on the 6th day after infection)”.

How did the “Action on candidosis in Mice” value (Candida albicans [1]) turn out when Clc1ccccc1C(c1ccccc1)(c1ccccc1Cl)n1ccnc1 [Example 9, 1-(2-Chlorophenyl-2'-chlorophenyl-phenyl)-methyl-imidazole] was run?
The value was “++++ (good action = >80% survival on the 6th day after infection)”.

What about the MIC (Candida Albicans [2]; n.s. = no added serum) of the same molecule?
The MIC was 1 µg/mL (≈ 2.64 µM).

And the MIC ([3]; n.s. = no added serum)?
The MIC was < 1 µg/mL.

And the MIC ([3]; w.s. = with 30% serum added)?
Its MIC is 4 µg/mL (≈ 10.5 µM).

And the MIC (Aspergillus niger; w.s. = with 30% serum added)?
Its MIC is 10 µg/mL (≈ 26.4 µM).

From patent publication US4117142A, “Disubstituted triphenylmethylmidazoles for treating mycotic infections” (Bayer Aktiengesellschaft, priority 1972, dated 1978)
